Among the data in US5935954A, “Compounds with improved multi-drug resistance activity” (Vertex Pharmaceuticals Incorporated, priority 1997, dated 1999) are Ki values, retold here.

The structures appear in SMILES notation.

FKBP12, sequence (P62942 whole entry, species assumed): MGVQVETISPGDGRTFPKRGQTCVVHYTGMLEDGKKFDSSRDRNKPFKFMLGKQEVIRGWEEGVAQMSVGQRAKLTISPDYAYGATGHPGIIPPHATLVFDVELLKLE

This assay has as its target FKBP12 (Homo sapiens, UniProt P62942). Description: FKBP12 binding assay (inhibition of rotomase activity). The class given is biochemical. As to conditions: apparent Ki. From the text:
Preferably, the assay measures inhibition of FKBP12 rotomase activity. Such an assay has also been described by M. W. Harding et al., supra and by J. J. Siekierka et al., supra. In this assay the isomerization of an artificial substrate--N-succinyl-Ala-Ala-Pro-Phe-p-nitroanilide--is followed spectrophotometrically. The assay includes the cis form of the substrate, FKBP12, the inhibitor and chymotrypsin. Chymotrypsin is able to cleave p-nitroanilide from the trans form of the substrate, but not the cis form. Release of p-nitroanilide is measured.
The inhibition of FKBP rotomase activity by the preferred FKBP12 binding compounds present in the compositions of this invention was assayed. In this assay various quantities of FKBP12 binding compound (0nM-10 μM) were added to cis-N-succinyl-Ala-Ala-Pro-Phe-p-nitroanilide in the presence of FKBP12 and chymotrypsin. FKBP12 converts the cis form of the substrate to the trans form. This allows chymotrypsin to cleave p-nitroanilide from the substrate. Release of p-nitroanilide was measured spectrophotometrically. This assay allowed me to measure the change in the first order rate constant of the rotomase activity as a function of FKBP12 binding compound concentration and yielded an estimate of apparent Ki.
For the molecule `COc1cc(C(=O)C(=O)N2CCCC[C@H]2C(=O)OC(CCCc2ccccc2)c2cccc(C(=CCCc3ccccc3)c3cccnc3)c2)cc(OC)c1OC` (some centres unmarked) [Compound 3], the Ki is 300 nM.
With `CCOc1ccc(OCC)c(-c2cccc(C(CCCc3ccccc3)OC(=O)[C@@H]3CCCCN3C(=O)C(=O)c3cc(OC)c(OC)c(OC)c3)c2)c1` (some centres unmarked) [Compound 4], the Ki was greater than 5000 nM.
As for `COc1cc(C(=O)C(=O)N2CCCC[C@H]2C(=O)O[C@@H](CCCc2ccccc2)c2cccc(/C(=C\CCc3ccccc3)c3cccnc3)c2)cc(OC)c1OC` [Compound 5], the Ki is 4000 nM.
Turning to `COc1cc(C(=O)C(=O)N2CCCC[C@H]2C(=O)O[C@H](CCCc2ccccc2)c2cccc(/C(=C\CCc3ccccc3)c3cccnc3)c2)cc(OC)c1OC` [Compound 6], the Ki stood at 24 nM.
Regarding `CCOc1ccc(OCC)c(-c2cccc([C@H](CCCc3ccccc3)OC(=O)[C@@H]3CCCCN3C(=O)C(=O)c3cc(OC)c(OC)c(OC)c3)c2)c1` [Compound 7], the Ki was greater than 10000 nM.
With `CCOc1ccc(OCC)c(-c2cccc([C@@H](CCCc3ccccc3)OC(=O)[C@@H]3CCCCN3C(=O)C(=O)c3cc(OC)c(OC)c(OC)c3)c2)c1` [Compound 8], the Ki stood at 1000 nM.
The result for `COc1cc(C(=O)C(=O)N2CCCC[C@H]2C(=O)O[C@H](CCCc2ccccc2)c2cccc(/C(=C\CCc3ccccc3)c3ccc[n+]([O-])c3)c2)cc(OC)c1OC` [Compound 9] reads 7 nM; that for `CCOc1ccc(OCC)c(-c2cncc([C@@H](CCCc3ccccc3)OC(=O)[C@@H]3CCCCN3C(=O)C(=O)c3cc(OC)c(OC)c(OC)c3)c2)c1` [Compound 10], 16 nM; that for `CCOc1ccc(OCC)c(-c2cncc([C@@H](CCCc3ccccc3)OC(=O)[C@@H]3CCCCN3C(=O)C(=O)c3ccc(OC)c(OC)c3)c2)c1` [Compound 11], 7 nM.
The same measure for `CCOc1ccc(OCC)c(-c2cncc([C@H](CCCc3ccccc3)OC(=O)[C@@H]3CCCCN3C(=O)C(=O)c3ccc(OC)c(OC)c3)c2)c1` [Compound 12]: 30 nM; for `COc1ccc(C(=O)C(=O)N2CCCC[C@H]2C(=O)O[C@H](CCCc2ccccc2)c2cncc(-c3ccccc3OC)c2)cc1OC` [Compound 13]: 5 nM; for `COc1ccc(C(=O)C(=O)N2CCCC[C@H]2C(=O)O[C@@H](CCCc2ccccc2)c2cncc(-c3ccccc3OC)c2)cc1OC` [Compound 14]: 12 nM.
The same measure for `COc1ccccc1-c1cncc([C@@H](CCCc2ccccc2)OC(=O)[C@@H]2CCCCN2C(=O)C(=O)c2cc(OC)c(OC)c(OC)c2)c1` [Compound 15]: 1 nM; for `CCC/C=C(/c1cccnc1)c1cccc([C@H](CCCc2ccccc2)OC(=O)[C@@H]2CCCCN2C(=O)C(=O)c2cc(OC)c(OC)c(OC)c2)c1` [Compound 16]: 3300 nM.
As for `CCC/C=C(/c1cccnc1)c1cccc([C@@H](CCCc2ccccc2)OC(=O)[C@@H]2CCCCN2C(=O)C(=O)c2cc(OC)c(OC)c(OC)c2)c1` [Compound 17], the Ki was 0.6 nM.
The same measure for `CCOc1ccccc1-c1cncc([C@@H](CCCc2ccccc2)OC(=O)[C@@H]2CCCCN2C(=O)C(=O)c2cc(OC)c(OC)c(OC)c2)c1` [Compound 18]: 0.4 nM; for `CCOc1ccccc1-c1cncc([C@H](CCCc2ccccc2)OC(=O)[C@@H]2CCCCN2C(=O)C(=O)c2cc(OC)c(OC)c(OC)c2)c1` [Compound 19]: 27 nM.
The result for `CCOc1ccccc1-c1cncc([C@@H](CCCc2ccccc2)OC(=O)[C@@H]2CCCCN2C(=O)C(=O)c2ccc(OC)c(OC)c2)c1` [Compound 20] reads 5.8 nM.
The same measure for `CCOc1ccccc1-c1cncc([C@H](CCCc2ccccc2)OC(=O)[C@@H]2CCCCN2C(=O)C(=O)c2ccc(OC)c(OC)c2)c1` [Compound 21]: 90 nM.
Turning to `CCCOc1ccc(OCCC)c(-c2cncc([C@H](CCCc3ccccc3)OC(=O)[C@@H]3CCCCN3C(=O)C(=O)c3cc(OC)c(OC)c(OC)c3)c2)c1` [Compound 23], the Ki was determined as 2500 nM.
